The source of these data is patent US20090156471A1, “Use of anti-amyloid agents for treating and typing pathogen infections” (RAMOT AT TEL AVIV UNIVERSITY LTD., priority 2005, published 2009).

Entries after “also recorded” stand apart in the source; their conditions may differ.

Data set [1] in a line: TEM analysis of peptide self-assembly into fibrillar structures. The format is physicochemical. The note with it: for self-assembly / fibril formation observed by TEM: peptide in water 10 to 50 mg/ml, room temperature, 3-6 days (micrographs: 50 mg/ml, 1 week). As for the experimental part:
TEM analysis—In all examined cases, peptides were dissolved in water to a concentration of 10 to 50 mg/ml and incubated at room-temperature (RT). Fresh stocks were prepared for each and every experiment. […] Following 1 minute, excess fluid was removed, and the grid was then negatively stained with 10 μl of 2% uranyl-acetate in water. Following 2 minutes, excess fluid was removed from the grid. Samples were viewed in JEOL 1200 EX transmission electron microscope. In the experiments shown, 50 mg/ml peptides were used and micrographs were taken following 1 week. Bar represents 100 nm.

In data set [2] the test system is curli-expressing E. coli K-12 XL1-Blue(pMRInv). The data set is described as follows: Quantitative Congo red (CR) binding of curli expressing bacteria. The note with it: 0.3 mM peptide, FIG. 3a.
Procedure: Binding units represent the decrease in absorbance (A487) of the CR solution after incubation with bacteria.
Congo red binding—Bacterial inoculums were grown in 6 ml LB medium for 5-7 hours at 37° C. in the presence or absence of 0.3 mM peptide inhibitor, until the cultures reached A600 of approximately 1.2. Each culture was then pelleted (1 min/13200×g) and resuspended in 6 ml saline (0.8% NaCl). Three double dilutions were performed for each culture and bacterial concentrations were determined at A600. Each dilution was divided into 3 microtubes (1 ml for each) and pelleted by centrifugation for 2 min/13200×g. A 0.004% solution of CR (in saline) was prepared and optical density at 487 nm was measured against a saline background. One thousand, 500 and 200 μl of CR solution were then added to each dilution triplets, the bacteria were well resuspended in the dye and left for 10 min incubation at RT. Next, a second centrifugation (2 min/13200×g) was performed and the supernatants containing the remaining dye were recovered. The optical density at 487 nm of each supernatant was determined and compared to the initial absorbance.
Inhibition was examined by directly applying the putative peptide inhibitor at time zero to a growing culture in liquid medium at 37° C. Cells analyzed for CR binding when reached optical density (A600) of approximately 1.2 absorbance units (AU).
Data set [3] concerns curli-expressing E. coli XL1-Blue(pMRInv) binding to bovine fibronectin. The data set is described as follows: Fibronectin binding (adhesion of bacteria to fibronectin coated wells). The note with it: 0.3 mM peptide, A405, FIG. 3b. The data set is classed as cell-based, Escherichia coli. The procedure: The adhesion of bacteria to fibronectin coated wells was determined by measuring absorbance at 405 nm. For (A) and (B), each column is the average of three experiments.
Fibronectin binding—Binding was quantified using the protocol described by Gophna et al (32). Briefly, wells of microtiter plates were coated with 100 μl of 5 μg/ml solution of bovine fibronectin (Sigma). The two strains of bacteria were grown to mid-exponential phase (A600, 0.5-0.6) with the various peptides in LB, harvested and suspended in saline. Wells were blocked with 200 μl milk (3%) for 2 hours at RT. Two hundreds micro-liter saline containing 5×10^8 cells/ml bacteria (A600, 0.9) were added to the wells with 0.3 mM of the suitable peptide and were incubated at RT for 3 h. Wells were washed twice with 200 μl PBS-T (0.05% Tween) and once with 200 μl PBS. The optical density of adherent bacteria was determined by the use of a microplate reader (ELISA) (A405), subtracting the optical density of an empty coated well.

The test system of data set [4] is E. coli XL1-Blue(pMRInv) internalization into HEK293 cells. The data set is described as follows: Internalization assay (antibiotic protection assay) in HEK293 cells. The note with it: 0.4 mM peptide, HEK293, 3 h at 37° C., gentamicin protection.
Procedure: Internalization assay—Epithelial cells were grown overnight in 24-well plates to 80% confluence (˜10^5 cells per well). Bacteria were inoculated in LB broth and grown at 37° C. for 16 h, diluted 100-fold, and grown to mid-exponential phase (A600, 0.4) in the presence or absence of 0.4 mM peptide inhibitor. Bacteria were then diluted to A600, 0.1 in LB and 20 μl were added to each well with epithelial monolayer for 3 h incubation at 37° C. […] Cells were washed once with PBS, pH 7.3, and PBS containing 100 μg/ml gentamicin was added. After 1.5 h incubation, the cells were washed twice in PBS, and lysed by 5 min incubation with ice-cold 0.5% triton X-100. Appropriate bacterial dilutions were plated to determine the number of viable internalized bacteria. E. coli XL1-Blue was maintained on Luria-Bertani (LB) agar and E. coli XL1-Blue(pMRInv) was maintained on LB agar containing 30 μg/ml kanamycin. […]
For that purpose, an antibiotic protection assay was effected using HEK293 cell-line. […] Following exposure to the antibiotic gentamicin, eukaryotic cells were analyzed for bacteria internalization rate by the determination of the colony forming units (cfu) of the surviving bacteria (FIG. 4a).
Data set [5] can be described thus: Circular dichroism (CD) spectra and copper binding. As for the experimental part:
FIGS. 2a-b are graphs showing copper binding to QHGGGN (SEQ ID NO: 5) peptide repeat. […] The titration of metal ions to the oligopeptide was performed using small aliquots from stock aqueous solutions of 25 mM CuCl2.2H2O. CD spectrum (250-800 nm) of QHGGGN (0.5 mM, pH 7.5) was measured with the addition of Cu^2+ in increments of 0.0125 mM (as a minimum) of CuCl2 (0.5 μl) from 0 up to 0.65 mM. Typically, 50 mM HEPES pH 7.5 buffer was used for CD studies. Spectra were obtained using an AVIV spectrapolarimeter and a 5 mm (FIG. 2a) and 10 mm (FIG. 2b) path length cuvettes.
Circular dichroism (CD) spectra and Copper binding—Circular Dichroism (CD) spectra, 250-800 nm, of the curli QHGGGN hexapeptide repeat in the absence and presence were preformed. […] The titration of metal ions to the oligopeptide was performed using small aliquots from stock aqueous solutions of 25 mM CuCl2-2H2O. CD spectrum (250-800 nm) of QHGGGN (0.5 mM, pH 7.5) was measured with the addition of Cu^2+ in increments of 0.0125 mM (as a minimum) of CuCl2 (0.5 μl) from 0 up to 0.65 mM. 50 mM HEPES pH 7.5 buffer was used for CD studies.

Data set [6] concerns the molecule itself. The experiment in a line: TEM of peptide self-assembly.

Regarding GQNHGG, the “self-assembly / fibril formation observed by TEM” value in data set [1] is “fibril-like structured”.

For HGQGNG, the “aggregation potential (amount of aggregates) of scrambled QHGGGN sequences” value in data set [1] (TEM, FIG. 1c) is “highly aggregative and much more abundant”. The “self-assembly / fibril formation observed by TEM” value in data set [1] is given as “amorphous aggregates”.

With NHQGGG, in data set [1], the “self-assembly / fibril formation observed by TEM” value is recorded as “small amount but highly ordered assemblies”.

QAGGGN: the “binding of CR in comparison to XL1-Blue(pMRInv) grown in absence of peptide” value in data set [2] was “no significant difference”. Moreover, in data set [1] (following 30 days of incubation), the “structures observed by TEM after prolonged incubation” value is “only minor amounts of amorphous aggregates”. Moreover, the “self-assembly / fibril formation observed by TEM” value in data set [1] is listed as “ability was lost; also recorded: no ordered structures could be detected”. The “bacterial adhesion to fibronectin coated wells” value in data set [3] is reported as “no significant effect”.

With QFGGGN, the “binding of CR in comparison to XL1-Blue(pMRInv) grown in absence of peptide” value in data set [2] is reported as “no significant difference”. Besides, in data set [1] (mixture with QAGGGN, 3-6 days incubation, TEM), the “fibril formation in a mixture of QFGGGN and QAGGGN peptides” value is recorded as “not inhibited”. Also, the “self-assembly / fibril formation observed by TEM” value in data set [1] was “assembled into fibrillar structures”; in data set [1] (listed as NH2-QFGGGN-COOH) it was “well-ordered fibrillar structures”. In addition, in data set [3], the “bacterial adhesion to fibronectin coated wells” value was “no significant effect”. In addition, the “amount of internalized bacteria (cfu) in eukaryotic cells” value in data set [4] is recorded as “did not interfere with bacterial invasion process”.

Regarding QHGGGN [curli hexapeptide repeat], in data set [5] (CD signal at 590 nm, peptide 0.5 mM, pH 7.5, 50 mM HEPES, CuCl2 0 up to 0.65 mM), the “Cu^2+ binding stoichiometry” value was “equimolar binding stoichiometry; also recorded: single Cu^2+ ion binding for each peptide molecule”. In addition, the “affinity of copper binding for a single repeat” value in data set [5] (binding curve sigmoid at concentrations in the hundreds of μM range) is listed as “not high”. In addition, in data set [1] (electron microscopy, 48 hours with equimolar CuCl2 in 50 mM HEPES, pH 7.5, room-temperature), the “fibrillization in the presence of copper” value is listed as “did not induce fibrillization”. The “self-assembly / fibril formation observed by TEM” value is “assembled into fibrillar structures” in data set [1] and “well-ordered fibrillar structures” in data set [1] (listed as NH2-QHGGGN-COOH).

B1: QFGGGN peptide (NH2-QFGGGN-COOH) (peptide)
peptide: H-QFGGGN-OH
notes: also called curlin repeat; oligopeptide repeat QFGGGN
Regarding B1, the binding result in data set [6] is “binds”.

B2: QHGGGN peptide (NH2-QHGGGN-COOH) (peptide)
peptide: H-QHGGGN-OH
notes: also called curli QHGGGN hexapeptide repeat
In the case of B2, in data set [6], the binding result is given as “binds”.
